Laboratory results taken from US10421718B2, “EBNA1 inhibitors and their method of use” (priority 2013, dated 2019).

Target: T1, His-EBNA1 (DNA binding domain of EBNA1, amino acids 459-607) (Epstein-Barr virus, UniProt P03211)
T1 construct: made in house; host or cells: E. coli
Test: Inhibition of 5′-biotin-oPL4624 binding to His-EBNA1 using Alpha Screen technology
Conditions: Alpha Screen Activity (IC50, inhibition of 5′-biotin-oPL4624 binding to His-EBNA1), 15 nM His-EBNA1, 0.2 nM bt-oPL4624, 2 hr room temperature
Procedure: Inhibition of 5′-biotin-oPL4624 binding to His-EBNA1 using Alpha Screen technology: Assays were performed using the DNA binding domain of EBNA1 (amino acids 459-607), which was His-tagged (His-EBNA1) and the self-complementary biotinylated (bt) oligonucleotide with the sequence 5′-bt-[…]-ATGCTACCC-3′ (bt-oPL4624). The protein was expressed in E. coli and purified according to Barwell, et al. (Barwell J A, Bochkarev A, Pfuetzner R A, Tong H, Yang D S, Frappier L, Edwards A M. (1995) Overexpression, purification, and crystallization of the DNA binding and dimerization domains of the Epstein-Barr virus nuclear antigen 1. J Biol Chem. 270: 20556-9.). The bt-oPL4624 oligonucleotide was purchased from Integrated DNA Technologies, Inc (IDT). AlphaScreen donor, acceptor beads and white, opaque 384-well assay plates were purchased from PerkinElmer, Inc.
Assays contained 15 nM His-EBNA1, 0.2 nM bt-oPL4624, 5 μg/mL AlphaScreen streptavidin donor beads and nickel chelate acceptor beads, and a series of concentrations of test compound ranging from 3.2 nM to 100 μM in a total volume of 40 μL assay buffer (25 mM Tris, pH 7.2, 160 mM NaCl, 1 mM MgCl2). His-EBNA1 (30 nM) and bt-oPL4624 (0.4 nM) were preincubated with 10 μg/mL nickel chelate AlphaScreen acceptor bead, or 10 μg/mL streptavidin AlphaScreen donor bead, respectively, for 30 minutes at room temperature in assay buffer. Twenty microliters of His-EBNA1/acceptor bead mix and bt-oPL4624/donor bead mix were transferred to assay plates containing […] of 1:3 serial dilutions of test compounds previously prepared in DMSO at concentrations ranging from 0.32 μM to 10 mM. Nonspecific binding was determined with 5 μg/mL AlphaScreen acceptor bead in the absence of His-EBNA1. After 2 hr incubation at room temperature, the AlphaScreen signal was measured on the Envision plate reader (PerkinElmer, Inc.) at 680 nm excitation and 570 nm emission. Inhibition values at each concentration of test compound were determined by setting 100% equal to raw data values in the absence of EBNA1 and 0% equal to the raw data values in the presence of EBNA1. Nonlinear regression fits of the inhibition values to a one-site dose-response equation were performed using GraphPad Prism.

T1 sequence (P03211 459-607): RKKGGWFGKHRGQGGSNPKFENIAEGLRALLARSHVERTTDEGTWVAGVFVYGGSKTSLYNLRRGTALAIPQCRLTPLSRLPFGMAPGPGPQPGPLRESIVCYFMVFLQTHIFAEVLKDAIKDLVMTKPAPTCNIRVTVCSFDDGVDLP

Row | SMILES | IC50 [µM]
1 | O=C(O)c1cccc(C#Cc2ccc3[nH]cnc3c2)c1-n1cccc1 [Entry 41] | 1 to 10
2 | O=C(O)c1cccc(C#Cc2ccc3[nH]ccc3c2)c1-n1cccc1 [Entry 42, 3-[2-(1H-indol-5-yl)ethynyl]-2-(1H-pyrrol-1-yl)benzoic acid] | 1 to 10
3 | O=C(O)c1cccc(C#Cc2ccc3cc[nH]c3c2)c1-n1cccc1 [Entry 43, 3-[2-(1H-indol-6-yl)ethynyl]-2-(1H-pyrrol-1-yl)benzoic acid] | < 1
4 | Cc1ccc(C#Cc2cccc(C(=O)O)c2-n2cccc2)cc1 [Entry 44, 3-[2-(4-methylphenyl)ethynyl]-2-(1H-pyrrol-1-yl)benzoic acid] | < 1
5 | O=C(O)c1cccc(C#Cc2cc(F)cc(F)c2)c1-n1cccc1 [Entry 45, 3-[2-(3,5-difluorophenyl)ethynyl]-2-(1H-pyrrol-1-yl)benzoic acid] | 1 to 10
6 | O=C(O)c1cccc(C#Cc2cccc(OC(F)F)c2)c1-n1cccc1 [Entry 46, 3-{2-[3-(difluoromethoxy)phenyl]ethynyl}-2-(1H-pyrrol-1-yl)benzoic acid] | 1 to 10
7 | C#Cc1cccc(C(=O)O)c1-n1cccc1 [Entry 47, 3-ethynyl-2-(1H-pyrrol-1-yl)benzoic acid] | 10 to 100
8 | CC(C)(N)C#Cc1cccc(C(=O)O)c1-n1cccc1 [Entry 48, 3-(3-amino-3-methylbut-1-yn-1-yl)-2-(1H-pyrrol-1-yl)benzoic acid] | 100 to 1000
9 | CC(C)(C)C#Cc1cccc(C(=O)O)c1-n1cccc1 [Entry 49, 3-(3,3-dimethylbut-1-yn-1-yl)-2-(1H-pyrrol-1-yl)benzoic acid] | 1 to 10
10 | Cc1ccc(C)n1-c1c(C#Cc2ccccc2)cccc1C(=O)O [Entry 50, 2-(2,5-dimethyl-1H-pyrrol-1-yl)-3-(2-phenylethynyl)benzoic acid] | < 1
11 | O=C(O)c1cncc(C#Cc2ccc(F)cc2)c1-n1cccc1 [Entry 51] | 1 to 10
12 | O=C(O)c1cncc(C#Cc2ccccc2)c1-n1cccc1 [Entry 52, 5-(2-phenylethynyl)-4-(1H-pyrrol-1-yl)pyridine-3-carboxylic acid] | 10 to 100
13 | NC1(C#Cc2cccc(C(=O)O)c2-n2cccc2)CCCCC1 [Entry 53, 3-[2-(1-aminocyclohexyl)ethynyl]-2-(1H-pyrrol-1-yl)benzoic acid trifluoroacetic acid] | < 1
14 | O=C(O)c1cccc(C#CC2(O)CCCCC2)c1-n1cccc1 [Entry 54, 3-[2-(1-hydroxycyclohexyl)ethynyl]-2-(1H-pyrrol-1-yl)benzoic acid] | 1 to 10
15 | CCCCC(CC)C(O)C#Cc1cccc(C(=O)O)c1-n1cccc1 (stereo not drawn) [Entry 55, 3-(4-ethyl-3-hydroxyoct-1-yn-1-yl)-2-(1H-pyrrol-1-yl)benzoic acid] | < 1
16 | O=C(O)c1cccc(C#Cc2cn3ccnc3cn2)c1-n1cccc1 [Entry 56, 3-(2-{imidazo[1,2-a]pyrazin-6-yl}ethynyl)-2-(1H-pyrrol-1-yl)benzoic acid] | < 1
17 | O=C(O)c1cccc(C#Cc2cccc(O)c2)c1-n1cccc1 [Entry 57, 3-[2-(3-hydroxyphenyl)ethynyl]-2-(1H-pyrrol-1-yl)benzoic acid] | < 1
18 | O=C(O)c1cc(Cl)cc(C#Cc2ccc(F)cc2)c1-n1cccc1 [Entry 58, 5-chloro-3-[2-(4-fluorophenyl)ethynyl]-2-(1H-pyrrol-1-yl)benzoic acid] | 10 to 100
19 | O=C(O)c1cc(Cl)cc(C#Cc2ccccc2)c1-n1cccc1 [Entry 59, 5-chloro-3-(2-phenylethynyl)-2-(1H-pyrrol-1-yl)benzoic acid] | 10 to 100
20 | O=C(O)c1cc(F)cc(C#Cc2ccc(F)cc2)c1-n1cccc1 [Entry 60, 5-fluoro-3-[2-(4-fluorophenyl)ethynyl]-2-(1H-pyrrol-1-yl)benzoic acid] | 100 to 1000
21 | O=C(O)c1cc(F)cc(C#Cc2ccccc2)c1-n1cccc1 [Entry 61, 5-fluoro-3-(2-phenylethynyl)-2-(1H-pyrrol-1-yl)benzoic acid] | 10 to 100
